Measured values: patent US20230285405A1, “Pharmaceuticals for Treating or Preventing Nidoviruses and Picornaviruses” (priority 2020, published 2023)
Like-named read-outs stand apart in the source and are kept apart here.

Experiments:
[1] = system: OC43; assay: Drug screening: OC43 nucleoprotein staining in infected A549-mRuby cells; assay type: cell-based, human beta coronavirus OC43; settings: for activity at 10 µM: Betacoronavirus 1, OC43, 96 h
Summary of the method: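 A549 cells expressing H2B-mRuby infected with OC43 at MOI 0.3 for 1 h at 33° C, then drugs added at 10 μM final and incubated 4 days at 33° C. Viral nucleoprotein immunostained and imaged; intensity normalized to cell number and no-drug controls (=100). Hits reduced staining >3 SD in both repeats without toxicity.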

[2] = system: A549-mRuby cells; assay: Drug screening: effect on cell growth (cell number day 4 / day 0); settings: 10 μM drug; for Growth_1: number of cells at day 4 divided by number of cells at day 0 / toxic_1: repeat #1; for Growth_2: number of cells at day 4 divided by number of cells at day 0 / toxic_2: repeat #2
Summary of the method: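 A549 cells carrying an H2B-mRuby reporter were infected with OC43 at MOI 0.3 for 1 h at 33° C, then given drug at 10 μM final. Cell numbers were counted by imaging at day 0 and again at day 4 after 4 days at 33° C, 5% CO2, with the screen run twice.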

[3] = system: SARS-CoV-2; assay: SARS-CoV-2 plaque titers (progeny production); assay type: cell-based, SARS-CoV-2 (nCoV/Washington/1/2020); settings: 10 μM drug for 2 hours, MOI 0.5, supernatant collected 2 days after
Procedure: For SARS-CoV-2 plaque titers, cell supernatants from the infection described above were serially diluted (10-fold steps were used) and used to infect Vero E6 cells for 1 hour. Inoculum was removed and 1.25% methylcellulose DMEM solution was added to the cells and incubated for 3 days. Plates were fixed in 1:10 formalin for 1 hour, stained with crystal violet for 1 hour and were counted to determine plaque forming units (PFU)/ml.
The effect of several drugs on the production of viable progeny viruses was evaluated. Cells were treated with 10 μM of the drugs for 2 hours, infected at an MOI of 0.5 and the supernatant collected 2 days after for titration (FIG. 2C). Cepharanthine and azelastine completely eliminated SARS-CoV-2 progeny production (>5-logs decrease), while flupenthixol and desloratidine reduced viral titers by about 2-logs. Ultimately, the screen identified 20 safe-in-human drugs that are able to inhibit both OC43 and SARS-CoV-2 infection in vitro.

[4] = biological target: T1, SARS-CoV-2 3CLpro (Severe acute respiratory syndrome coronavirus 2, UniProt P0DTD1); assay type: cell-based
T1 construct: the SARS-CoV-2 main protease (also known as 3CLpro, Mpro and nsp5); expressed in transfected cells; host or cells: 293T cells

[5] = system: OC43; assay: Dose-response analysis of OC43 infection; assay type: cell-based, human beta coronavirus OC43
Procedure: Dose-response analysis of OC43 infection was done similarly to the drug screening, except cells were seeded at a concentration of 5,000 cells per well and the media contained 2% BCS instead of 10% BCS. OC43 staining was performed 2 days after infection and analyzed similarly to what was described for the drug screening. A sigmoid fit was used to extract EC50 values using Matlab.

[6] = system: SARS-CoV-2; assay: microbe, parasite or virus in culture; assay type: cell-based, SARS-CoV-2 (nCoV/Washington/1/2020)
[7] = 10 μM drug, MOI 0.3, 4 days, OC43 staining normalized to no-drug controls, mean of the two screen repeats
[8] = 10 μM drug, MOI 0.3, 4 days, OC43 staining normalized to no-drug controls, mean of the two screen repeats, read-out: OC43_mean
[9] = 10 μM drug, MOI 0.3, 4 days, normalized to no-drug controls in the same plate, repeat #1, read-out: OC43_1: % staining of OC43 in screen repeat #1
[10] = 10 μM drug, MOI 0.3, 4 days, normalized to no-drug controls in the same plate, repeat #2, read-out: OC43_2: % staining of OC43 in screen repeat #2
[11] = Betacoronavirus 1, OC43, 48 h, read-out: EC50 OC43, A549-mRuby cells, staining 2 days after infection
[12] = Severe acute respiratory syndrome coronavirus 2; read-out: EC50 SARS2
[13] = 10 μM drug, MOI 0.3, 4 days, normalized to no-drug controls in the same plate, repeat #1
[14] = 10 μM drug, MOI 0.3, 4 days, normalized to no-drug controls in the same plate, repeat #2
[15] = A549-mRuby cells, staining 2 days after infection, read-out: EC50 OC43

Row | Compound | OC43_mean [1, 7] [%] | Growth_1: number of cells at day 4 divided by number of cells at day 0 [2] | toxic_1 [2] | Growth_2: number of cells at day 4 divided by number of cells at day 0 [2] | toxic_2 [2] | hit_1 ([1]; 10 μM drug, repeat #1) | hit_2 ([1]; 10 μM drug, repeat #2) | activity at 10 µM [1, 8] [%] | activity at 10 µM [1, 9] [%] | activity at 10 µM [1, 10] [%] | 3CLpro activity: percentage of GFP-expressing cells (in words) [4] | EC50 [5, 11] [µM] | EC50 [6, 12] [µM] | OC43_1: % staining of OC43 in screen repeat #1 [1, 13] [%] | OC43_2: % staining of OC43 in screen repeat #2 [1, 14] [%] | EC50 [5, 15] [µM] | EC50 ([6]; read-out: EC50 SARS2) [µM] | also measured
1 | Cl.Cl.OCCN1CCN(CCC=C2c3ccccc3Sc3ccc(C(F)(F)F)cc32)CC1 (mixture of isomers) [Flupenthixol dihydrochloride] | 21.0 | 2.1 | 0 | 3.3 | 0 | – | – | – | – | – | – | – | – | – | – | – | – | OC43_1: % staining of OC43 in screen repeat #1 [1]: 8.7%; OC43_2: % staining of OC43 in screen repeat #2 [1]: 33.3%; hit_1 [1]: 1; hit_2 [1]: 1; decrease of SARS-CoV-2 viral titers (progeny production) [3]: about 2 logs
2 | Cc1nc2c([nH]1)CCN(C(=O)c1ccc(NC(=O)c3ccccc3-c3ccccc3)cc1)c1ccccc1-2.O [Conivaptan HCl] | – | 4.2 | 0 | 4.7 | 0 | 1 | 1 | 5.7 | 4.5 | 7 | statistically significant decrease | 4.6 | 4 | – | – | – | – | –
3 | Clc1ccc2c(c1)CCc1cccnc1C2=C1CCNCC1 [Desloratadine] | – | 4.8 | 0 | 4.4 | 0 | 1 | 1 | 19.3 | 13.2 | 25.4 | – | – | – | – | – | – | – | decrease of SARS-CoV-2 viral titers (progeny production) [3]: about 2 logs
4 | CS(=O)(=O)CCNCc1ccc(-c2ccc3ncnc(Nc4ccc(OCc5cccc(F)c5)c(Cl)c4)c3c2)o1 [Lapatinib] | 9.7 | 3.8 | – | 4.4 | – | – | – | – | – | – | statistically significant decrease | 3.1 | – | 5.2 | 14.1 | – | – | EC50 ([6]; Severe acute respiratory syndrome coronavirus 2, read-out: EC50 SARS2): 1.6 µM
5 | O.O=C(c1ccc(OCCN2CCCCC2)cc1)c1c(-c2ccc(O)cc2)sc2cc(O)ccc12 [Raloxifene HCl] | – | 5.0 | 0 | 5.2 | 0 | 1 | 1 | 11.7 | 9.4 | 14 | – | 2.7 | 3.8 | – | – | – | – | –
6 | O=C(O)CCC(=O)O.O=C(O[C@H]1CN2CCC1CC2)N1CCc2ccccc2[C@@H]1c1ccccc1 [Solifenacin succinate] | – | 5.0 | 0 | 5.0 | 0 | 1 | 1 | – | – | – | – | – | 3.6 | – | – | – | – | activity at 10 µM ([1]; read-out: OC43_1: % staining of OC43 in screen repeat #1): 13%; activity at 10 µM ([1]; read-out: OC43_2: % staining of OC43 in screen repeat #2): 11.3%; activity at 10 µM ([1]; read-out: OC43_mean): 12.1%; EC50 ([5]; Betacoronavirus 1, OC43, 48 h, read-out: EC50 OC43): 4.8 µM
7 | N#Cc1ccc2[nH]cc(CCCCN3CCN(c4ccc5oc(C(N)=O)cc5c4)CC3)c2c1.O [Vilazodone HCl] | – | 3.5 | 0 | 3.9 | 0 | 1 | 1 | 9.8 | 13 | 6.7 | statistically significant decrease | 3.6 | 4.5 | – | – | – | – | –
8 | Bafetinib [Bafetinib (INNO-406)] | 13.4 | 5.0 | 0 | 3.6 | 0 | 1 | 1 | – | – | – | statistically significant decrease | – | – | 17.2 | 9.6 | 2.1 | 2.2 | –
9 | Retapamulin | – | 4.3 | 0 | 4.1 | 0 | 1 | 1 | – | – | – | statistically significant decrease | – | – | 11.7 | 12.6 | 4.5 | 8 | OC43_mean [1]: 12.2%
10 | Velpatasvir | 18.0 | 6.2 | 0 | 5.6 | 0 | 1 | 1 | – | – | – | – | – | – | 26.0 | 10.0 | 2 | > 10 | –
